Data published in paper PMC6896172, “Successful Targeting of the Warburg Effect in Prostate Cancer by Glucose-Conjugated 1,4-Naphthoquinones” (Cancers, 2019).

Tested on: 22Rv1 cells
Assay: Global proteome analysis (LC-MS/MS, DIA) of differentially expressed proteins
Type: cell-based, human
Experimental: 22Rv1 cells were seeded in T75 culture bottles (4 × 10^6 cells/bottle in 20 mL/bottle), treated for 48 h with the 5 µM of compound 11 or vehicle (DMSO), harvested by scratching, washed twice with ice-cold PBS and flash-frozen. Cells were lysed and sonicated. The protein extracts were then heat-denaturated, reduced, alkylated and digested by trypsin. Peptides were chromatographically separated using full recovery autosampler vials and a nano-UPLC system (Acquity, Waters Corporation, Milford, MS, USA), coupled via electrospray ionization (ESI) to a tandem mass spectrometer equipped with a quadrupole and an orbitrap (QExactive, Thermo Fisher Scientific, Bremen, Germany), using MS/MS mode in data dependent acquisition (DDA) and data independent acquisition (DIA). The peptides, analyzed with DDA-LC-MS/MS, were identified with the search engine Sequest, integrated in the Proteome Discoverer software version 2.0 (Thermo Fischer Scientific) using the human Uniprot protein database (EMBL; Hinxton Cambridge, UK, release December 2018). […] For the details of sample preparation and proceeding, data acquisition and analysis see the Supplementary information. […]
serum (FBS, Invitrogen) and 1% penicillin/streptomycin (Invitrogen)). […]
Cell lines were lysed in 100 mM triethylammonium bicarbonate and 1% w/v sodium deoxycholate buffer followed by probe sonication to destroy polynucleotides and heat induce protein denaturing at 99 °C for 5 min. Protein concentrations were estimated with a bicinchonic acid (BCA) protein assay (Thermo Fisher Scientific, Bremen, Germany). 20 µg of protein were reduced in presence of 10 mM dithiotreithol (Sigma Aldrich) for 30 min at 60 °C followed by cysteine alkylation with 20 mM iodo acetamide (Sigma Aldrich) for 30 min at 37 °C in the dark and enzymatic degradation with sequencing grade trypsin (Promega) over night at 37 °C. Digestion was quenched with 1% formic acid (FA), precipitated sodium deoxycholate removed by centrifugation for 5 min at 14,000 g and the supernatant was dried in a vacuum centrifuge.
LC-MS/MS in Data Dependent and Data Independent Mode
Samples were resuspended in 0.1% FA and transferred into a full recovery autosampler vial (Waters). Chromatographic separation was achieved on a nano -UPLC system (Acquity, Waters Corporation, Milford, MS, USA) with a two-buffer-system (buffer A: 0.1% FA in water, buffer B:
0.1% FA in Acetonitrile (ACN), both at pH = 3). Attached to the UPLC was a reversed -phase peptide trapping column (Symmetry C18, 180 µm × 20 mm, 100 Å pore size, 5 µm particle size) for desalting, followed by a reversed-phase capillary separation of the tryptic peptides (BEH C18; 75 µm × 200 mm, 130 Å pore size, 1.7 µm particle size), using a 60 min gradient with increasing ACN concentration from 2–30% ACN. The eluting peptides were analyzed on a quadrupole-orbitrap mass spectrometer (QExactive, Thermo Fisher Scientific, Bremen, Germany) in data dependent acquisition (DDA) and data independent acquisition (DIA) for quantification.
In DDA mode, one replicate of each cell line was randomly chosen and 1 µg per sample was used per LC-MS/MS run to build a reference spectral library used for data extraction of samples acquired in DIA mode. For DDA, the 12 most intense ions per precursor scan (1 × 10 6 ions, 70,000 Resolution, 120 ms fill time) were analyzed by MS/MS (HCD at 25 normalized collision energy, 1 × 105 ions, 17,500 Resolution, 50 ms fill time) in a range of 400–1300 m/z. A dynamic precursor exclusion of 20 s was used. For DIA, 1 µg of each sample was analyzed using a 30 sequential 20 Da fixed window method covering the mass range from 400 –1000 m/z. Per cycle, 2 precursor scans (1 × […]
28 normalized collision energy, 1 × 106 ions, 17,500 Resolution, 50 ms fill time) were performed.
After the first precursor scan, 15 MS/MS scans were performed covering the precursor mass range from 400–700 m/z followed by the second precursor scan and another 15 MS/MS scans ranging from […]
LC-MS/MS Data Processing and Analysis […]

CC1(C)OC2OC(C(O)COC3=CC(=O)c4cccc(O)c4C3=O)C(O)C2O1 (stereo not shown) [Compound 11]
Fold change (treated / control) (protein ARID2_HUMAN (Q68CP9)): 0.5698
Fold change (treated / control) (protein BAZ1B_HUMAN (Q9UIG0)): 0.5909
Fold change (treated / control) (protein BCAM_HUMAN (P50895)): 0.2614
Fold change (treated / control) (protein BRD1_HUMAN (O95696)): 0.5595
Fold change (treated / control) (protein CBX5_HUMAN (P45973)): 0.6078
Fold change (treated / control) (protein CCD86_HUMAN (Q9H6F5)): 0.6454
Fold change (treated / control) (protein CEBPZ_HUMAN (Q03701)): 0.6117
Fold change (treated / control) (protein CHCH5_HUMAN (Q9BSY4)): 0.3153
Fold change (treated / control) (protein CISD1_HUMAN (Q9NZ45)): 0.6534
Fold change (treated / control) (protein CLUS_HUMAN (P10909)): 0.6547
Fold change (treated / control) (protein CMTD1_HUMAN (Q86VU5)): 0.6695
Fold change (treated / control) (protein COASY_HUMAN (Q13057)): 0.6716
Fold change (treated / control) (protein COQ5_HUMAN (Q5HYK3)): 0.6569
Fold change (treated / control) (protein CPSF7_HUMAN (Q8N684)): 0.5898
Fold change (treated / control) (protein CRIP2_HUMAN (P52943)): 0.5784
Fold change (treated / control) (protein CX6B1_HUMAN (P14854)): 0.5635
Fold change (treated / control) (protein DDX21_HUMAN (Q9NR30)): 0.6203
Fold change (treated / control) (protein DDX50_HUMAN (Q9BQ39)): 0.5638
Fold change (treated / control) (protein DDX52_HUMAN (Q9Y2R4)): 0.5706
Fold change (treated / control) (protein DESP_HUMAN (P15924)): 0.5753
Fold change (treated / control) (protein DHX30_HUMAN (Q7L2E3)): 0.6273
Fold change (treated / control) (protein DPOE3_HUMAN (Q9NRF9)): 0.6062
Fold change (treated / control) (protein E2AK2_HUMAN (P19525)): 0.6134
Fold change (treated / control) (protein EDF1_HUMAN (O60869)): 0.6154
Fold change (treated / control) (protein EFTU_HUMAN (P49411)): 0.6185
Fold change (treated / control) (protein ELOV5_HUMAN (Q9NYP7)): 0.5895
Fold change (treated / control) (protein FAKD2_HUMAN (Q9NYY8)): 0.6444
Fold change (treated / control) (protein FKB10_HUMAN (Q96AY3)): 0.625
Fold change (treated / control) (protein FKBP8_HUMAN (Q14318)): 0.6712
Fold change (treated / control) (protein GCN1_HUMAN (Q92616)): 0.6676
Fold change (treated / control) (protein GRSF1_HUMAN (Q12849)): 0.6529
Fold change (treated / control) (protein H2AY_HUMAN (O75367)): 0.6499
Fold change (treated / control) (protein HSPB6_HUMAN (O14558)): 0.6349
Fold change (treated / control) (protein IF4A1_HUMAN (P60842)): 0.6202
Fold change (treated / control) (protein IMA1_HUMAN (P52292)): 0.5682
Fold change (treated / control) (protein IQEC2_HUMAN (Q5JU85)): 0.6175
Fold change (treated / control) (protein K2013_HUMAN (Q8IYS2)): 0.3342
Fold change (treated / control) (protein LRWD1_HUMAN (Q9UFC0)): 0.5648
Fold change (treated / control) (protein MAP2_HUMAN (P50579)): 0.6543
Fold change (treated / control) (protein MCM3_HUMAN (P25205)): 0.6329
Fold change (treated / control) (protein MCM4_HUMAN (P33991)): 0.5634
Fold change (treated / control) (protein MCM5_HUMAN (P33992)): 0.5949
Fold change (treated / control) (protein MCM6_HUMAN (Q14566)): 0.6119
Fold change (treated / control) (protein MCM7_HUMAN (P33993)): 0.5855
Fold change (treated / control) (protein MIPEP_HUMAN (Q99797)): 0.6023
Fold change (treated / control) (protein MTA1_HUMAN (Q13330)): 0.5631
Fold change (treated / control) (protein MTA2_HUMAN (O94776)): 0.5939
Fold change (treated / control) (protein MYOME_HUMAN (Q5VU43)): 0.6576
Fold change (treated / control) (protein NDUA3_HUMAN (O95167)): 0.3195
Fold change (treated / control) (protein NDUAC_HUMAN (Q9UI09)): 0.6076
Fold change (treated / control) (protein NDUV1_HUMAN (P49821)): 0.6332
Fold change (treated / control) (protein NUDC_HUMAN (Q9Y266)): 0.6476
Fold change (treated / control) (protein P4HTM_HUMAN (Q9NXG6)): 0.3114
Fold change (treated / control) (protein PCNA_HUMAN (P12004)): 0.6578
Fold change (treated / control) (protein PDS5A_HUMAN (Q29RF7)): 0.5949
Fold change (treated / control) (protein PTMA_HUMAN (P06454)): 0.5745
Fold change (treated / control) (protein RFC2_HUMAN (P35250)): 0.5826
Fold change (treated / control) (protein RFC3_HUMAN (P40938)): 0.567
Fold change (treated / control) (protein RFC4_HUMAN (P35249)): 0.5722
Fold change (treated / control) (protein RFC5_HUMAN (P40937)): 0.6148
Fold change (treated / control) (protein RL1D1_HUMAN (O76021)): 0.6228
Fold change (treated / control) (protein RL4_HUMAN (P36578)): 0.563
Fold change (treated / control) (protein RL10A_HUMAN (P62906)): 0.5923
Fold change (treated / control) (protein RL13_HUMAN (P26373)): 0.6224
Fold change (treated / control) (protein RL15_HUMAN (P61313)): 0.6202
Fold change (treated / control) (protein RL19_HUMAN (P84098)): 0.3072
Fold change (treated / control) (protein RL23A_HUMAN (P62750)): 0.5699
Fold change (treated / control) (protein RL23_HUMAN (P62829)): 0.6468
Fold change (treated / control) (protein RL27A_HUMAN (P46776)): 0.6191
Fold change (treated / control) (protein RL34_HUMAN (P49207)): 0.2863
Fold change (treated / control) (protein RL36_HUMAN (Q9Y3U8)): 0.6291
Fold change (treated / control) (protein RM11_HUMAN (Q9Y3B7)): 0.6501
Fold change (treated / control) (protein RM45_HUMAN (Q9BRJ2)): 0.6189
Fold change (treated / control) (protein RM53_HUMAN (Q96EL3)): 0.5657
Fold change (treated / control) (protein RM54_HUMAN (Q6P161)): 0.6079
Fold change (treated / control) (protein RPA34_HUMAN (O15446)): 0.6508
Fold change (treated / control) (protein RPAB5_HUMAN (P62875)): 0.5655
Fold change (treated / control) (protein RS2_HUMAN (P15880)): 0.6402
Fold change (treated / control) (protein RS6_HUMAN (P62753)): 0.6108
Fold change (treated / control) (protein RS9_HUMAN (P46781)): 0.6218
Fold change (treated / control) (protein S27A3_HUMAN (Q5K4L6)): 0.6711
Fold change (treated / control) (protein SERC1_HUMAN (Q9NRX5)): 0.3307
Fold change (treated / control) (protein SIGIR_HUMAN (Q6IA17)): 0.5907
Fold change (treated / control) (protein SMCA5_HUMAN (O60264)): 0.6602
Fold change (treated / control) (protein SMRC1_HUMAN (Q92922)): 0.6541
Fold change (treated / control) (protein SPB1_HUMAN (Q8IY81)): 0.6134
Fold change (treated / control) (protein STRBP_HUMAN (Q96SI9)): 0.6608
Fold change (treated / control) (protein SUOX_HUMAN (P51687)): 0.6055
Fold change (treated / control) (protein TF3C1_HUMAN (Q12789)): 0.6535
Fold change (treated / control) (protein TF3C5_HUMAN (Q9Y5Q8)): 0.6483
Fold change (treated / control) (protein TIM8B_HUMAN (Q9Y5J9)): 0.3123
Fold change (treated / control) (protein UBL5_HUMAN (Q9BZL1)): 0.5618
Fold change (treated / control) (protein UCRI_HUMAN (P47985)): 0.5774
Fold change (treated / control) (protein UTP18_HUMAN (Q9Y5J1)): 0.63
Fold change (treated / control) (protein VIGLN_HUMAN (Q00341)): 0.6343
Fold change (treated / control) (protein XRN2_HUMAN (Q9H0D6)): 0.664
Fold change (treated / control) (protein YBOX1_HUMAN (P67809)): 0.6605
Fold change (treated / control) (protein ZN326_HUMAN (Q5BKZ1)): 0.6081
Fold change (treated / control) (protein ZN428_HUMAN (Q96B54)): 0.5792
Fold change (treated / control) (protein ZN595_HUMAN (Q8IYB9)): 0.6231
